Assay results reported in US8187320B2, “Medical implants containing FK506 (tacrolimus)” (Abbott Laboratories Vascular Enterprises Limited, priority 2001, dated 2012).
“And” between values parts separate entries of the source, which are not always exact repeats. Equal entries are not always repeated. Marks after values point to notes of the source that are not given here.

Tests used:
[1] = tested on: smooth muscle cells (SMC); assay: Inhibition of proliferation of smooth muscle cell (SMC) cultures; format: cell-based
[2] = tested on: neointima formation and foci of inflammation; assay: Animal study: FK506-loaded ceramic-coated stents implanted into the carotid artery of rabbits; format: in vivo, New Zealand rabbits; conditions: ceramic-coated stents loaded with 60 μg of FK506; rabbit carotid artery; after 28 days
Protocol: Stainless steel coronary stents (JOSTENT Flex, 16 mm) were coated with an aluminum oxide ceramic layer. This coating served as carrier of FK506 (as described in Example 5). In this case, the stents were loaded with a total of 60 μg of FK506. In an animal study in rabbits (n=7), these FK506 coated stents and normal stents without coating were implanted into the carotid artery of New Zealand rabbits. The release of FK506 and the effect of FK506 on the growth of the intima and the formation of macrophages and lymphocytes was investigated.
The release of FK506 were determined by HPLC determination of the amount of FK506 in the blood of the rabbits after 1 hr, 8 hr, 24 hr and 48 hr. FIG. 6 is a graph showing the release of FK506 over time. The rabbits were sacrificed after 28 days, and the implanted stents were examined. The area of newly grown intima (neointima) within the stent was quantified under the optical microscope, and is reported in FIG. 7. There is a reduction of 53% in the formation of neointima for stents loaded with 60 μg of FK506 compared with bare stents. […] The use of stents with a ceramic coating onto which FK506 is applied thus leads to a distinct reduction in neointima and in foci of inflammation after the implantation.

[3] = Loading of selected active agents onto stent grafts / polyurethane-coated stents; format: physicochemical; conditions: type A: stent grafts with PTFE polymer layer immersed in solution of dissolved solids
Text: Loading of Selected Active Agents onto Stent Grafts All values are stated in μg.

[4] = Active agent release from stent grafts and polymer-coated stents in PBS buffer at 37° C.; format: physicochemical; conditions: type A PTFE stent graft, PBS 37° C.
Protocol: To analyze the active agent release, a stent was incubated at 37° C. in 10 ml of PBS buffer (stabilized with Na azide) at 37° C. After defined periods of time had elapsed, 2×1 ml of the solution were removed and analyzed. These 2 ml were replaced by fresh PBS buffer (stabilized with Na azide).
The tables reflect the total released content of active agent in the solution., ie., the amounts of active agent in the buffer volume removed for the analysis are accumulated with amounts detected in subsequent examples.

neointima formation [5] = conditions: animal experiments; cited from earlier work
neointima formation [6] = conditions: pigs; Heldman 2001; cited from earlier work
restenosis = conditions: in vivo; cited from earlier work

Compound: C=CC[C@@H]1/C=C(\C)C[C@H](C)C[C@H](OC)[C@H]2O[C@@](O)(C(=O)C(=O)N3CCCC[C@H]3C(=O)O[C@H](/C(C)=C/[C@@H]3CC[C@@H](O)[C@H](OC)C3)[C@H](C)[C@@H](O)CC1=O)[C@H](C)C[C@@H]2OC (relative stereo) [FK 506, [3S-[3R* [E(1S*, 3S*, 4S*)], 4S*, 5R*,-8S*, 9E, 12R*, 14R*, 15S*, 16R*, 18S*, 19S*, 26aR*]]-5,6,8,11,12, 13, 14, 15, 16, 17, 18, 19, 24, 25, 25, 26, 26a-hexadecahydro-5,19-dihydroxy-3-[2-(4-hydroxy-3-methoxycyclohexyl)-1-methylethenyl]-14,16-dimethoxy-4,10,12,18-tetramethyl-8-(2-propenyl)-15,19-epoxy-3H-pyrido[2,1-c] [1,4]oxaazacyclotricosine-1,7-20,21(4H,23H)-tetrone]
- concentrations with inhibitory effect on SMC proliferation [1]: 300 to 500 nM
- reduction in the formation of neointima compared with bare stents [2]: 53%

Compound: N.N.[Cl][Pt][Cl] [Cisplatin]
- amount of active agent loaded, Average [3]: 14 µg
- amount of active agent loaded, single stent, measured by AAS ([3]; measured by AAS): 15* μg and 14* μg
- total released content after 24 hr, single determinations ([4]; Cisplatin): 12.4 µg and 12.2 µg and 16.1 µg and 15.9 µg and 10.9 µg and 11.1 µg

Compound: O=C1c2c(O)ccc(O)c2C(=O)c2c(NCCNCCO)ccc(NCCNCCO)c21 [Mitoxantrone]
- amount of active agent loaded, Average [3]: 124 µg
- amount of active agent loaded, single stent [3]: 116 µg and 142 µg and 113 µg

Compound: CC(=O)O[C@H]1C(=O)[C@@]2(C)[C@H]([C@H](OC(=O)c3ccccc3)[C@]3(O)C[C@H](OC(=O)[C@H](O)[C@@H](NC(=O)c4ccccc4)c4ccccc4)C(C)=C1C3(C)C)[C@]1(OC(C)=O)CO[C@@H]1C[C@@H]2O [Paclitaxel]
- amount of active agent loaded, Average [3]: 144 µg
- amount of active agent loaded, single stent [3]: 128 µg and 155 µg and 148 µg
- total released content after 8 hr, single determinations ([4]; Paclitaxel, after 8 hr): 1.16 and μg and 1.21 μg and 0.89 and 0.94 μg and 1.42 and 1.25 μg
- total released content after 24 hr, single determinations ([4]; Paclitaxel): 2.44 and μg and 2.40 μg and 2.26 and 2.27 μg and 1.65 and 1.42 μg
- total released content after 96 hr, single determinations ([4]; Paclitaxel, after 96 hr): 2.79 and μg and 2.78 μg and 2.82 and 2.82 μg and 1.42 and 1.93 μg
- total released content after 192 hr, Average ([4]; Paclitaxel, after 192 hr): 2.23 µg
- total released content after 192 hr, single determinations ([4]; Paclitaxel, after 192 hr): 2.22 µg and 2.24 µg
- neointima formation (neointima formation [5]): inhibit neointima formation
- duration of beneficial effect of coated stents (neointima formation [6]): beneficial effect has been observed to cease after 6 months

Compound: CC[C@]1(O)C[C@@H]2CN(CCc3c([nH]c4ccccc34)[C@@](C(=O)OC)(c3cc4c(cc3OC)N(C)[C@H]3[C@@](O)(C(=O)OC)[C@H](OC(C)=O)[C@]5(CC)C=CCN6CC[C@]43[C@@H]65)C2)C1 [Vinblastine]
- total released content after 96 hr, Average ([4]; Vinblastine, after 96 hr): 136 µg
- total released content after 96 hr, single determinations ([4]; Vinblastine, after 96 hr): 132 and μg and 140 μg

Compound: CO[C@H]1C[C@@H]2CC[C@@H](C)[C@@](O)(O2)C(=O)C(=O)N2CCCC[C@H]2C(=O)O[C@H]([C@H](C)C[C@@H]2CC[C@@H](O)[C@H](OC)C2)CC(=O)[C@H](C)/C=C(\C)[C@@H](O)[C@@H](OC)C(=O)[C@H](C)C[C@H](C)/C=C/C=C/C=C/1C [rapamycin]
- healing of vessel wall injury caused by balloon angioplasty and stent implantation (restenosis): delays healing of vessel wall injury
